The values that follow come from ChEMBL document CHEMBL4359916, “Design, synthesis and biological evaluation of 1-benzyl-5-oxopyrrolidine-2-carboximidamide derivatives as novel neuroprotective agents” (Eur J Med Chem, 2019).

Structures are written as SMILES. The source made the active and inactive calls. The calls are words filed in the database; no cut-off is given here.

For data set [1], the system named is SH-SY5Y. As to the kind of experiment: Neuroprotective activity against NMDA-induced cell damage in human SH-SY5Y cells assessed as cell viability at 0.05 uM preincubated for 8 hrs followed by NMDA addition and further incubated for 30 mins and measured after 12 hrs by MTT assay relative to control. In kind it is functional. The following applies: read-out: Activity.

Data set [2] deals with SH-SY5Y. In words: Neuroprotective activity against NMDA-induced cell damage in human SH-SY5Y cells assessed as cell viability at 0.5 uM preincubated for 8 hrs followed by NMDA addition and further incubated for 30 mins and measured after 12 hrs by MTT assay relative to control. In kind it is functional. The following applies: read-out: Activity.
The subject of data set [3] is SH-SY5Y. As to the kind of experiment: Neuroprotective activity against NMDA-induced cell damage in human SH-SY5Y cells assessed as cell viability at 5 uM preincubated for 8 hrs followed by NMDA addition and further incubated for 30 mins and measured after 12 hrs by MTT assay relative to control. Format: functional. As to conditions: read-out: Activity.
Data set [4] addresses T1, Glutamate [NMDA] receptor (Homo sapiens) (UniProt Q05586+Q12879+Q13224+O15399+O60391+Q14957+Q8TCU5). As to the kind of experiment: Antagonist activity at NMDA receptor in human SH-SY5Y cells assessed as reduction in NMDA-stimulated calcium ion influx at 5 uM measured after 3 hrs by Fluo-3 AM indicator based laser scanning confocal microscopy analysis. In kind it is cell-based.

The nature of data set [5]: Half-life in human liver microsomes at 10 uM preincubated for 10 mins followed by addition of NADPH and measured for 5 to 60 mins. Format: ADME, Microsome.
Data set [6] can be described thus: Clearance in human liver microsomes at 10 uM preincubated for 10 mins followed by addition of NADPH and measured for 5 to 60 mins. In kind it is ADME, Microsome.
Data set [7] can be described thus: Metabolic stability in human liver microsomes assessed as parent compound remaining at 10 uM measured after 60 mins. In kind it is ADME, Microsome. The following applies: read-out: Stability.
Data set [8] concerns SH-SY5Y. As to the kind of experiment: Neuroprotective activity in human SH-SY5Y cells assessed as reduction in NMDA-induced NR2B upregulation preincubated for 6 hrs followed by NMDA addition and further incubated for 30 mind and measured after 4 hrs by Western blot analysis. In kind it is functional, cell-based.
Data set [9] deals with T1, Glutamate [NMDA] receptor (Homo sapiens). In words: Inhibition of NMDA receptor in NMDA-induced human SH-SY5Y cells assessed as increase in phosphorylated ERK1/2 level preincubated for 6 hrs followed by NMDA addition and further incubated for 30 mind and measured after 4 hrs by Western blot analysis. Format: cell-based.
Data set [10] concerns Mus musculus. In words: Cognitive enhancing effect in C57BL/6 mouse model of bilateral common carotid artery occlusion-induced brain ischemia assessed as effect on total arm entries at 10 to 50 mg/kg/day, po via gavage at 24 hrs post surgery on day 8 after […] of drug administration by Y-maze test. Format: functional, organism-based.
The test system of data set [11] is Mus musculus. As to the kind of experiment: Memory enhancement effect in C57BL/6 mouse model of bilateral common carotid artery occlusion-induced brain ischemia assessed as increase in preferential index at 50 mg/kg/day, po via gavage after 24 hrs post surgery measured on day 9 to 12 after 1 hr by novel object recognition test. Format: functional, organism-based.

Data set [12] deals with Mus musculus. In words: Memory enhancement effect in C57BL/6 mouse model of bilateral common carotid artery occlusion-induced brain ischemia assessed as increase in discrimination index at 50 mg/kg/day, po via gavage 24 hrs post surgery measured on day 9 to 12 after 24 hrs by novel object recognition test. Format: functional, organism-based.
Data set [13] has as its system Mus musculus. As to the kind of experiment: Improvement in spatial memory impairment in C57BL/6 mouse model of bilateral common carotid artery occlusion-induced brain ischemia at 50 mg/kg/day, po via gavage at 24 hrs post surgery measured on day 9 to 12 by novel object recognition test. In kind it is functional, organism-based.
Data set [14] deals with Mus musculus. In words: Improvement in visual recognition effect in C57BL/6 mouse model of bilateral common carotid artery occlusion-induced brain ischemia at 50 mg/kg/day, po via gavage at 24 hrs post surgery measured on day 9 to 12 by novel object recognition test. Format: functional, organism-based.
Data set [15] concerns Mus musculus. As to the kind of experiment: Improvement in spatial memory impairment in C57BL/6 mouse model of bilateral common carotid artery occlusion-induced brain ischemia assessed as decrease in escape latency at 10 to 50 mg/kg/day, po via gavage at 24 hrs post surgery and 1 hr prior to the test measured on day 14 to 17 by Morris water maze test. Format: functional, organism-based.

In data set [16] the test system is Mus musculus. As to the kind of experiment: Improvement in spatial memory impairment in C57BL/6 mouse model of bilateral common carotid artery occlusion-induced brain ischemia assessed as increase in time spent in correct quadrant at 10 to 50 mg/kg/day, po via gavage at 24 hrs post surgery and 1 hr prior to the test measured on day 14 to 17 by Morris water maze test. In kind it is functional, organism-based.

Data set [17] deals with Mus musculus. In words: Improvement in spatial memory impairment in C57BL/6 mouse model of bilateral common carotid artery occlusion-induced brain ischemia assessed as increase in swimming distance at 10 to 50 mg/kg/day, po via gavage at 24 hrs post surgery and 1 hr prior to the test measured on day 14 to 17 by Morris water maze test. In kind it is functional, organism-based.

For data set [18], the system named is Mus musculus. In words: Improvement in spatial memory impairment in C57BL/6 mouse model of bilateral common carotid artery occlusion-induced brain ischemia assessed as increase in number of virtual platform crossing at 10 to 50 mg/kg/day, po via gavage at 24 hrs post surgery and 1 hr prior to the test measured on day 14 to 17 by Morris water maze test. In kind it is functional, organism-based.

The subject of data set [19] is Mus musculus. In words: Cognitive enhancing effect in C57BL/6 mouse model of bilateral common carotid artery occlusion-induced brain ischemia assessed as increase in spontaneous alternation behavior at 10 to 50 mg/kg/day, po via gavage at 24 hrs post surgery on day 8 after 1 hr drug administration by Y-maze test. In kind it is functional, organism-based.
The subject of data set [20] is Mus musculus. As to the kind of experiment: Cognitive enhancing effect in C57BL/6 mouse model of bilateral common carotid artery occlusion-induced brain ischemia at 50 mg/kg/day, po via gavage at 24 hrs post surgery after day 17. In kind it is functional, organism-based.
Data set [21] deals with Mus musculus. In words: Improvement in spatial memory impairment in C57BL/6 mouse model of bilateral common carotid artery occlusion-induced brain ischemia at 50 mg/kg/day, po via gavage at 24 hrs post surgery after day 17. Format: functional, organism-based.

Take `COc1ccc(CNC(=N)[C@@H]2CCC(=O)N2Cc2ccccc2)cc1`: the viability at 0.05 µM in data set [1] amounted to 7.1%. In addition, in data set [2], the viability at 0.5 µM came to 23.6%. The viability at 5 µM in data set [3] was determined as 19.5%.
As for `C[C@@H]([C@@H](O)c1ccc(O)cc1)N1CCC(Cc2ccccc2)CC1` [(S)-IFENPRODIL], the viability at 0.05 µM in data set [1] turned out to be 29.4%. Also, the viability at 0.5 µM in data set [2] was determined as 40.4%. Moreover, the viability at 5 µM in [3] was found to be 41%. Also, the inhibition entry in data set [4] was “Active”.
In the case of `N=C(NCc1ccc(O)cc1)[C@@H]1CCC(=O)N1Cc1ccc([N+](=O)[O-])cc1`, the viability at 0.05 µM in data set [1] was 25.9%. The viability at 0.5 µM in data set [2] is 31.3%. Besides, the viability at 5 µM in data set [3] stood at 34.5%.
The corresponding values for `N=C(NCc1ccccc1)[C@@H]1CCC(=O)N1Cc1ccc([N+](=O)[O-])cc1` are 13.7%, 24% and 25.6%.
With `COc1ccc(CN2C(=O)CC[C@H]2C(=N)NCc2ccc(O)cc2)cc1`, the viability at 0.05 µM in data set [1] came to 16%. For the same molecule, in data set [2], the viability at 0.5 µM came out at 20.5%. Also, the viability at 5 µM in [3] is 26.6%.
Take `Cl.N=C(NCc1ccc(O)cc1)[C@@H]1CCC(=O)N1Cc1ccc(F)cc1`: in [5], the half-life at 10 µM is more than 2.42 h. The viability at 0.05 µM in [1] stood at 35.2%. Besides, in [2], the viability at 0.5 µM turned out to be 42%. For the same molecule, in data set [3], the viability at 5 µM is 48.6%. Moreover, in data set [6], the CLint was less than 9.6 µL/min/mg. Further, the remaining at 1 h, 10 µM in data set [7] turned out to be 92.7%. Moreover, the inhibition entry in [4] and in [9] was “Active” throughout. For the same molecule, the outcome in [8], in data set [11], in data set [12], in data set [13], in data set [14] and in data set [15] was Active. Besides, the result in data set [16], in data set [17], in data set [18], in data set [19], in data set [20] and in [21] was Active. The result in data set [10] was inactive.
For `N=C(NCc1ccc(O)cc1)[C@@H]1CCC(=O)N1Cc1ccccc1[N+](=O)[O-]`, in data set [1], the viability at 0.05 µM was determined as 20%. For the same molecule, the viability at 0.5 µM in [2] worked out at 26.9%. Further, the viability at 5 µM in data set [3] was found to be 30.4%.
For the molecule `Cc1ccc(CN2C(=O)CC[C@H]2C(=N)NCc2ccccc2)cc1`, the viability at 0.05 µM in [1] was 17.1%. The viability at 0.5 µM in data set [2] worked out at 23.5%. Moreover, in data set [3], the viability at 5 µM is 24.8%.
On to `N=C(NCc1ccccc1)[C@@H]1CCC(=O)N1Cc1ccc(F)cc1`, for which the viability at 0.05 µM in data set [1] turned out to be 13.3%. Also, the viability at 0.5 µM in [2] was found to be 23.3%. Also, the viability at 5 µM in data set [3] was found to be 31.4%.
In the case of `COc1ccc(CN2C(=O)CC[C@H]2C(=N)NCc2ccccc2)cc1`, the viability at 0.05 µM in data set [1] turned out to be 12.3%. The viability at 0.5 µM in [2] turned out to be 21%. Besides, in data set [3], the viability at 5 µM was found to be 17.9%.
The corresponding values for `COc1ccc(CNC(=N)[C@@H]2CCC(=O)N2Cc2ccc(OC)cc2)cc1` are 24.2%, 24.8% and 33.6%.
For `COc1ccc(CNC(=N)[C@@H]2CCC(=O)N2Cc2ccc(C)cc2)cc1` the same measures were 19.5%, 21.9% and 29.5%.
Turning to `Cc1ccc(CN2C(=O)CC[C@H]2C(=N)NCc2ccc(O)cc2)cc1`, in data set [1], the viability at 0.05 µM turned out to be 20.5%. Moreover, the viability at 0.5 µM in data set [2] is 21.9%. Also, in data set [3], the viability at 5 µM amounted to 23.8%.
For `COc1ccc(CNC(=N)[C@@H]2CCC(=O)N2Cc2ccccc2[N+](=O)[O-])cc1` the same measures were 18.1%, 21.1% and 25.4%.
For `N=C(NCc1ccccc1)[C@@H]1CCC(=O)N1Cc1ccccc1` the same measures were 16.6%, 27.9% and 20.7%.
For `COc1ccc(CNC(=N)[C@@H]2CCC(=O)N2Cc2ccc([N+](=O)[O-])cc2)cc1` the same measures were 14.3%, 25.4% and 35.2%.
Regarding `N=C(NCc1ccc(O)cc1)[C@@H]1CCC(=O)N1Cc1ccccc1`, in data set [1], the viability at 0.05 µM is 19.8%. For the same molecule, the viability at 0.5 µM in data set [2] turned out to be 35.4%. In addition, in [3], the viability at 5 µM was determined as 37.6%.
As for `COc1ccc(CNC(=N)[C@@H]2CCC(=O)N2Cc2ccc(F)cc2)cc1`, the viability at 0.05 µM in data set [1] amounted to 15.8%. The viability at 0.5 µM in data set [2] was 36.7%. Also, in data set [3], the viability at 5 µM came to 38.1%.
With `N=C(NCc1ccccc1)[C@@H]1CCC(=O)N1Cc1ccccc1[N+](=O)[O-]`, in [1], the viability at 0.05 µM was found to be 10.1%. In data set [2], the viability at 0.5 µM came out at 28.8%. Also, the viability at 5 µM in [3] was 25.3%.
